Consider 20 compounds from US20230416227A1, “PLASMA KALLIKREIN INHIBITORS” (Merck Sharp & Dohme LLC, priority 2020, published 2023).

Test [1] addresses human factor XIa (Homo sapiens, UniProt P03951). The test is described as follows: Factor XIa Assay. In kind it is biochemical. As to conditions: human factor XIa 0.04 nM, substrate GPR-AFC, 30 min pre-incubation at 25° C., pH 7.4; read-out: FXIa IC50. As for the experimental part:
The effectiveness of a compound of the present invention as an inhibitor of Coagulation factor XIa can be determined using a relevant purified serine protease, and an appropriate synthetic substrate. The rate of hydrolysis of the chromogenic or fluorogenic substrate by the relevant serine protease was measured both in the absence and presence of compounds of the present invention. Assays were conducted at rt or at 37° C. […] A decrease in the rate of fluorescence change in the presence of inhibitor is indicative of enzyme inhibition. Such methods are known to one skilled in the art. The results of this assay are expressed as the half-maximal inhibitory concentrations (IC50), or the inhibitory constant, Ki.
Compounds were pre-incubated for 30 min at 25° C. with human (0.04 nM) factor XIa in 50 mM HEPES buffer with 150 mM sodium chloride, 5 mM calcium chloride, 0.1% PEG 8000, pH 7.4. factor XIa enzymatic activity was determined by addition of the substrate glycine-proline-arginine-7-amido-4-trifluoromethylcoumarin (GPR-AFC) and measurement of the fluorescence at 400/505 nm after a 60 min incubation at 25° C. The % inhibition for each data point was calculated from the data and analyzed using the log (inhibitor) vs. response four parameters equation to determine the half-maximal inhibitory concentrations (IC50). The IC50 were converted to equilibrium inhibitory constants (Ki) using the Cheng-Prusoff equation.

In test [2] the target is T1, Human plasma kallikrein (Homo sapiens, UniProt P03952).
T1 construct: yields a heavy chain (371 amino acids) and a light chain (248 amino acids); purchased Enzyme Research Laboratories
T1 sequence (P03952 391-638 limits assumed): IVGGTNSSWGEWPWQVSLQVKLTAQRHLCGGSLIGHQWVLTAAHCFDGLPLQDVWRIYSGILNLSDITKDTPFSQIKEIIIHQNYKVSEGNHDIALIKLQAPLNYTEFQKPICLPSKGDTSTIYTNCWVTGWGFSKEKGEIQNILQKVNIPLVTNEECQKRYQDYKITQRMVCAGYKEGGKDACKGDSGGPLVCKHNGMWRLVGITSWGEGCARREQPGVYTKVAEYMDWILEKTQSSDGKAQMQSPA
T1 sequence (P03952 20-390 partner limits assumed): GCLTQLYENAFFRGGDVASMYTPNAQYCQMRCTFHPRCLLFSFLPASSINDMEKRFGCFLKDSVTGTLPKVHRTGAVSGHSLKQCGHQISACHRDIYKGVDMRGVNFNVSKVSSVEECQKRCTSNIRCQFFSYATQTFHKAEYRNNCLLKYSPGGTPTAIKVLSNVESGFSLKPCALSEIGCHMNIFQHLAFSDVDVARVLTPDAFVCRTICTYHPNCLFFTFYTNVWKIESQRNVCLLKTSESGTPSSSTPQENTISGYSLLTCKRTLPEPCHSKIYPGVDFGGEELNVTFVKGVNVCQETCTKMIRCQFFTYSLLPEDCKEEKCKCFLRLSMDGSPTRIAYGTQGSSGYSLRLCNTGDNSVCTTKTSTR
The test can be described thus: Plasma Kallikrein Assay. As to conditions: purified Human plasma kallikrein 0.5 nM, substrate Acetyl-K-P-R-AFC, pH 7.4. In kind it is biochemical.

human factor XIa, sequence (P03951 388-625 limits assumed): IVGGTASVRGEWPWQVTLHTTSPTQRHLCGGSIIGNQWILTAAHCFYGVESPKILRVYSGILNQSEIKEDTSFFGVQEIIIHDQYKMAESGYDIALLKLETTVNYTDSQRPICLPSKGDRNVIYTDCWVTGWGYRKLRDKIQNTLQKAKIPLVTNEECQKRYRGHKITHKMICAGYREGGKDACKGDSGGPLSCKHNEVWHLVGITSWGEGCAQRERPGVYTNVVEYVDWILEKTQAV
human factor XIa, sequence (P03951 19-387 partner limits assumed): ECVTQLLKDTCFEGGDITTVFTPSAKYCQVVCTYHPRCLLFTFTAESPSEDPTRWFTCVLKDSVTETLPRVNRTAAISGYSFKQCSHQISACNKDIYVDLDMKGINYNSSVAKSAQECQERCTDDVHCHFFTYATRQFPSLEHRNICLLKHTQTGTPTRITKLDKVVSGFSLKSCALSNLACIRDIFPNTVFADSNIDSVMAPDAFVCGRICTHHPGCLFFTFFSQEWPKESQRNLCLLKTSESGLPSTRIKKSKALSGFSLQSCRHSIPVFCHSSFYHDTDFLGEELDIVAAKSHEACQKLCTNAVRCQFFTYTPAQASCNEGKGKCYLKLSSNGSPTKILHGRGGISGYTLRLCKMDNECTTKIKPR

Consider `CC(c1cnc(N2C[C@H]3C[C@H]3[C@H]2C(N)=O)nc1)n1cc(NC(=O)c2cncc(-c3c(C(F)F)ccc(Cl)c3F)n2)cn1` (relative stereo) [Example 195, (cis)-3-(5-(1-(4-(6-(3-Chloro-6-(difluoromethyl)-2-fluorophenyl)pyrazine-2-carboxamido)-1H-pyrazol-1-yl)ethyl)pyrimidin-2-yl)-3-azabicyclo[3.1.0]hexane-2-carboxamide], for which the IC50 (commonly the concentration at which inhibition is half-maximal) in test [1] stood at 8800 nM; in test [2] it was 11 nM.

With `C[C@H](c1cnc(N2CCC2)nc1)n1cc(NC(=O)c2cncc(-c3c(C(F)F)ccc(Cl)c3F)n2)cn1` (single isomer, unassigned) [Example 4], the IC50 in test [1] amounted to 1320 nM; in test [2], 23.1 nM.

As to `O=C(Nc1cnn([C@@H](CO)c2cnc(N3CCC3)nc2)c1)c1cncc(-c2c(C(F)F)ccc(Cl)c2F)n1` (single isomer, unassigned) [Example 6], the IC50 was determined as 1690 nM in test [1] and 22.9 nM in test [2].

`O=C(Nc1cnn([C@H](CO)c2cnc(N3CCC3)nc2)c1)c1cncc(-c2c(C(F)F)ccc(Cl)c2F)n1` (single isomer, unassigned) [Example 7]: the 50% inhibitory concentration (IC50) is 1420 nM in test [1] and 52.1 nM in test [2].

For the compound `Cc1ncc(-c2c(C(F)F)ccc(Cl)c2F)nc1C(=O)Nc1cnn(C(C)c2cnc(N3CCC3)nc2)c1` (single isomer, unassigned) [Example 27, (S or R)-N-(1-(1-(2-(azetidin-1-yl)pyrimidin-5-yl)ethyl)-1H-pyrazol-4-yl)-6-(3-chloro-6-(difluoromethyl)-2-fluorophenyl)-3-methylpyrazine-2-carboxamide], the IC50 was found to be 869 nM in test [1] and 3.8 nM in test [2].

As to `Cc1ncc(-c2c(C(F)F)ccc(Cl)c2F)nc1C(=O)Nc1cnn(C(C)c2cnc(N3CCC3)nc2)c1` (single isomer, unassigned) [Example 28, (R or S)-N-(1-(1-(2-(azetidin-1-yl)pyrimidin-5-yl)ethyl)-1H-pyrazol-4-yl)-6-(3-chloro-6-(difluoromethyl)-2-fluorophenyl)-3-methylpyrazine-2-carboxamide], the IC50 in test [1] is 927 nM; in test [2], 11.9 nM.

On to `CC(c1cnc(N2CCC2)cn1)n1cc(NC(=O)c2cncc(-c3c(C(F)F)ccc(Cl)c3F)n2)cn1` (single isomer, unassigned) [Example 29, (S or R)-N-(1-(1-(5-(azetidin-1-yl)pyrazin-2-yl)ethyl)-1H-pyrazol-4-yl)-6-(3-chloro-6-(difluoromethyl)-2-fluorophenyl)pyrazine-2-carboxamide], for which the IC50 amounted to 1770 nM in test [1] and 20.7 nM in test [2].

For the compound `CC(c1cnc(N2CCC2)cn1)n1cc(NC(=O)c2cncc(-c3c(C(F)F)ccc(Cl)c3F)n2)cn1` (single isomer, unassigned) [Example 30, (R or S)-N-(1-(1-(5-(azetidin-1-yl)pyrazin-2-yl)ethyl)-1H-pyrazol-4-yl)-6-(3-chloro-6-(difluoromethyl)-2-fluorophenyl)pyrazine-2-carboxamide], the IC50 in test [1] worked out at 2170 nM; in test [2], 7.8 nM.

For `CC(c1cnc(N2CC3CC3C2)nc1)n1cc(NC(=O)c2cncc(-c3c(C(F)F)ccc(Cl)c3F)n2)cn1` (single isomer, unassigned) [Example 31, N-(1-((1S or 1R)-1-(2-(3-azabicyclo[3.1.0]hexan-3-yl)pyrimidin-5-yl)ethyl)-1H-pyrazol-4-yl)-6-(3-chloro-6-(difluoromethyl)-2-fluorophenyl)pyrazine-2-carboxamide], the IC50 in test [1] is 2720 nM; in test [2] it was 27 nM.

For the compound `CC(c1cnc(N2CC3CC3C2)nc1)n1cc(NC(=O)c2cncc(-c3c(C(F)F)ccc(Cl)c3F)n2)cn1` (single isomer, unassigned) [Example 32, N-(1-((1R or 1S)-1-(2-(3-azabicyclo[3.1.0]hexan-3-yl)pyrimidin-5-yl)ethyl)-1H-pyrazol-4-yl)-6-(3-chloro-6-(difluoromethyl)-2-fluorophenyl)pyrazine-2-carboxamide], the values for the IC50 in test [1] and in test [2] were 1520 nM and 8.1 nM, respectively.

Consider `CC(c1cnc(N2CC3CC3C2)nc1)n1cc(NC(=O)c2nc(-c3c(C(F)F)ccc(Cl)c3F)cnc2N(C)C)cn1` (single isomer, unassigned) [Example 34, N-(1-((1R or 1S)-1-(2-(3-azabicyclo[3.1.0]hexan-3-yl)pyrimidin-5-yl)ethyl)-1H-pyrazol-4-yl)-6-(3-chloro-6-(difluoromethyl)-2-fluorophenyl)-3-(dimethylamino)pyrazine-2-carboxamide], for which the IC50 came to 3330 nM in test [1] and 28.1 nM in test [2].

Regarding `O=C(Nc1cnn(C(c2cnc(N3CCC3)nc2)C(F)F)c1)c1cncc(-c2c(C(F)F)ccc(Cl)c2F)n1` (single isomer, unassigned) [Example 36, (S or R)-N-(1-(1-(2-(azetidin-1-yl)pyrimidin-5-yl)-2,2-difluoroethyl)-1H-pyrazol-4-yl)-6-(3-chloro-6-(difluoromethyl)-2-fluorophenyl)pyrazine-2-carboxamide], the IC50 came to 4430 nM in test [1] and 44.3 nM in test [2].

Take `CC(c1ccc(N2CCC2)nc1)n1cc(NC(=O)c2cncc(-c3c(C(F)F)ccc(Cl)c3F)n2)cn1` (single isomer, unassigned) [Example 37, (S or R)-N-(1-(1-(6-(azetidin-1-yl)pyridin-3-yl)ethyl)-1H-pyrazol-4-yl)-6-(3-chloro-6-(difluoromethyl)-2-fluorophenyl)pyrazine-2-carboxamide]: the IC50 in test [1] was 2700 nM; in test [2] it was 25.6 nM.

As to `CC(c1ccc(N2CCC2)nc1)n1cc(NC(=O)c2cncc(-c3c(C(F)F)ccc(Cl)c3F)n2)cn1` (single isomer, unassigned) [Example 38, (R or S)-N-(1-(1-(6-(azetidin-1-yl)pyridin-3-yl)ethyl)-1H-pyrazol-4-yl)-6-(3-chloro-6-(difluoromethyl)-2-fluorophenyl)pyrazine-2-carboxamide], the figures for the IC50 in test [1] and in test [2] were 2580 nM and 5 nM, respectively.

For the compound `Cc1nc(C(C)n2cc(NC(=O)c3cncc(-c4c(C(F)F)ccc(Cl)c4F)n3)cn2)cnc1N1CCC1` (single isomer, unassigned) [Example 39, (S or R)-N-(1-(1-(5-(azetidin-1-yl)-6-methylpyrazin-2-yl)ethyl)-1H-pyrazol-4-yl)-6-(3-chloro-6-(difluoromethyl)-2-fluorophenyl)pyrazine-2-carboxamide], the IC50 worked out at 478 nM in test [1] and 1.3 nM in test [2].

For `Cc1nc(C(C)n2cc(NC(=O)c3cncc(-c4c(C(F)F)ccc(Cl)c4F)n3)cn2)cnc1N1CCC1` (single isomer, unassigned) [Example 40, (R or S)-N-(1-(1-(5-(azetidin-1-yl)-6-methylpyrazin-2-yl)ethyl)-1H-pyrazol-4-yl)-6-(3-chloro-6-(difluoromethyl)-2-fluorophenyl)pyrazine-2-carboxamide], the values for the IC50 in test [1] and in test [2] were 794 nM and 3.7 nM, respectively.

For the compound `Cc1nc(N2CCC2)cnc1C(C)n1cc(NC(=O)c2cncc(-c3c(C(F)F)ccc(Cl)c3F)n2)cn1` (single isomer, unassigned) [Example 41, (S or R)-N-(1-(1-(5-(azetidin-1-yl)-3-methylpyrazin-2-yl)ethyl)-1H-pyrazol-4-yl)-6-(3-chloro-6-(difluoromethyl)-2-fluorophenyl)pyrazine-2-carboxamide], the IC50 in test [1] stood at 4210 nM; in test [2] it was 2.1 nM.

In the case of `[2H]C(C)(c1cnc(N2CCC2)nc1)n1cc(NC(=O)c2cncc(-c3c(C(F)F)ccc(Cl)c3F)n2)cn1` (single isomer, unassigned) [Example 42, (S or R)-N-(1-(1-(2-(azetidin-1-yl)pyrimidin-5-yl)ethyl-1-d)-1H-pyrazol-4-yl)-6-(3-chloro-6-(difluoromethyl)-2-fluorophenyl)pyrazine-2-carboxamide], the IC50 in test [1] worked out at 1110 nM; in test [2] it was 4.7 nM.

Consider `[2H]C(C)(c1cnc(N2CCC2)nc1)n1cc(NC(=O)c2cncc(-c3c(C(F)F)ccc(Cl)c3F)n2)cn1` (single isomer, unassigned) [Example 43, (R or S)-N-(1-(1-(2-(azetidin-1-yl)pyrimidin-5-yl)ethyl-1-d)-1H-pyrazol-4-yl)-6-(3-chloro-6-(difluoromethyl)-2-fluorophenyl)pyrazine-2-carboxamide], for which the IC50 in test [1] was found to be 1170 nM; in test [2], 19.5 nM.

`O=C(Nc1cnn(C(CO)c2cnc(N3CC4CC4C3)nc2)c1)c1cncc(-c2c(C(F)F)ccc(Cl)c2F)n1` (single isomer, unassigned) [Example 44, N-(1-((S or R)-1-(2-(3-Azabicyclo[3.1.0]hexan-3-yl)pyrimidin-5-yl)-2-hydroxyethyl)-1H-pyrazol-4-yl)-6-(3-chloro-6-(difluoromethyl)-2-fluorophenyl)pyrazine-2-carboxamide]: the IC50 in test [1] was 1460 nM; in test [2], 10.3 nM.
